Reference: patent US20040121968A1, “Antiangiogenesis by inhibiting protein kinase CK2 activity” (priority 2002, published 2004)

Tests used:
[1] = system: retinal endothelial cells (REC); assay: REC proliferation assay (MTS cell number); assay type: cell-based, bovine; details: for inhibition of REC proliferation: basal and growth factor-stimulated (quercetin 50 μM, emodin, DRB 20-25 μM), H-7: preliminary, not shown
Protocol: REC proliferation and survival assays. 96-well plates were coated with various amounts of TN-C or vehicle. […] Cell numbers were determined on days 4-7 using the MTS cell proliferation assay (Promega Corp.) according to manufacturer's instructions. Survival was measured in the same way using high glucose (30 mM) or chemical hypoxia (2 mM sodium azide) or serum-free medium to induce cell death. Cell numbers were determined on days 4-7 using MTS assay (Promega).

[2] = system: retinal endothelial cells (REC); assay: Secondary sprouting assay on Matrigel; assay type: cell-based, bovine; details: for inhibition of REC secondary sprouting: basal and growth factor-stimulated (quercetin 50 μM, emodin, DRB 20-25 μM), H-7: preliminary, not shown
Protocol: (§1) In vitro Matrigel™ assay of capillary-like tube formation and secondary sprouting. […] Briefly, 50 μL of reconstituted basement membrane matrix from mouse EHS tumor (BD or GFR Matrigel™; Becton Dickinson Labware, Bedford, Mass.) were dispensed with frozen pipettes into each well of a previously frozen, sterile 96-well plate sitting on wet ice and allowed to solidify for 1 hr at room temperature or 37° C. Approximately 5×10^4 or 7.5×10^4 REC in a 100 μL volume were seeded into each triplicate well. Human recombinant or purified growth factors were added to a final concentration of 10 ng/mL (or as noted) in 0.5% FCS incomplete BREC medium. Capillary-like tube structures formed by REC on reconstituted basement membrane matrix were photographed at various intervals ranging from 12-72 hr; pictures were scanned, digitized and analyzed using image-processing software. For the secondary sprouting assay, cells on reconstituted basement membrane matrix (BD Matrigel™) were seeded as above but incubated in 0.5% FCS incomplete BREC medium without any growth factors for 3 days, allowing for tube formation and collapse. On day 3, human recombinant or purified growth factors were added to a final concentration of 10 ng/mL (or as noted) in low-serum incomplete BREC medium and incubated for another 5-6 days. Digital photographs were obtained with a Kodak MDS 100 camera attached to a Leitz DM IL inverted microscope. Digitized images obtained with a Kodak MDS 100 video camera were stored on compact discs and quantified with NIH Image 1.62 software. The number of living cells in the sprouting colonies were determined using the MTS cell proliferation assay.
(§2) The cells form tubes on Matrigel™ by 16 hr, and by 48 hr, without TN-C or growth factors, the tubes collapse. Secondary sprouting with Matrigel™ invasion starts by day four in culture. Cultures were monitored microscopically. Culture medium with or without growth factors or inhibitors was changed every two-three days.

[3] = system: retinal endothelial cells (REC); assay: Migration (wound healing) assay; assay type: cell-based, bovine; details: for inhibition of REC migration: basal and growth factor-stimulated (quercetin 50 μM, emodin, DRB 20-25 μM), H-7: preliminary, not shown; for effect on growth factor-mediated cell migration: bovine REC, four GFs (IGF-1+FGF-2+VEGF+PlGF) 10 ng/ml each, 7 days, 0.5% serum, emodin 10 μM, DRB 15 μM
Protocol: Migration assay. REC migration rates were examined in a wound healing assay, where cells migrate over time into the scrape wound in a monolayer. Briefly, cells were seeded in 24-well plates and allowed to reach confluence in growth medium. Prior to growth factor treatment, cells were serum-starved overnight in incomplete BREC medium with 0.5% FCS. All monolayers within an experiment were wounded with a single sterile wood stick of constant diameter, to ensure uniformity in the wound areas among different treatments. Wounded monolayers were then rinsed with low-serum medium to remove detached cells and treated with various combinations of human growth factors at 10 ng/mL each. On day 7, cells were rinsed 3× with PBS and fixed with methanol for 15 min, rehydrated with dH2O and stained with Meyer's hematoxylin for 5 min, followed by destaining with dH2O. All wells were photographed with a 4× or 10× objective using a Kodak MDS 100 digital camera attached to a Leitz DM IL inverted microscope. The original wound area was measured at 0 hr and used as a baseline for comparison to the treated wells at the conclusion of the experiment. The number of cells migrated into the wound was determined. Migrating cell counting was automated using the AAB (Advanced American Biotechnology, Fullerton, Calif.) software. Data were calculated and statistically analyzed (Spirin K S et al., Basement membrane and growth factor gene expression in normal and diabetic human retinas, Curr. Eye Res. 18:490-499 [1999]) relative to control cultures that received the same concentrations of bovine serum albumin instead of growth factors and/or inhibitor, compared to vehicle instead of inhibitor after wounding. Inhibitors were added 30 min before growth factors.

[4] = system: oxygen-induced retinopathy in newborn mice; assay: Oxygen-induced retinopathy in newborn mice (retinal neovascularization); assay type: in vivo, mouse; details: for retinal neovascularization diminished by: two intraperitoneal injections daily, day 11-17 after birth, emodin 20-30 μg/g, vs untreated or vehicle-treated
[5] = system: retinal endothelial cells (REC); assay: Matrigel assay of capillary-like tube formation; assay type: cell-based, bovine; details: for inhibition of REC tube formation: basal and growth factor-stimulated (quercetin 50 μM, emodin, DRB 20-25 μM)
Protocol: as §1, §2

[6] = Solubility in water / vehicle; assay type: physicochemical
[7] = system: retinal endothelial cells (REC); assay: REC survival assay (low serum, MTS cell number); assay type: cell-based, bovine
Protocol: REC proliferation and survival assays. 96-well plates were coated with various amounts of TN-C or vehicle. 5×10^3 cells were added to each triplicate well in low-serum REC medium with various amounts of growth factors (0.5% FCS incomplete BREC medium containing 10 ng/ml of human IGF-I, FGF-2, VEGF, PlGF and PDGF-BB [R&D Systems Inc., Minneapolis, Minn.]). Cell numbers were determined on days 4-7 using the MTS cell proliferation assay (Promega Corp.) according to manufacturer's instructions. Survival was measured in the same way using high glucose (30 mM) or chemical hypoxia (2 mM sodium azide) or serum-free medium to induce cell death. Cell numbers were determined on days 4-7 using MTS assay (Promega).

[8] = system: normal REC and DR REC gene expression; assay: Gene array analysis of growth factor action on normal and DR REC; assay type: cell-based, human; details: 10 ng/mL growth factor, seven days, 0.5% serum
Protocol: Normal REC and DR REC gene expression patterns were compared by gene array analysis. Normal, diabetic and DR autopsy human eyes are obtained from National Disease Research Interchange (NDRI), within 24 hours after death. These eyes are used to isolate REC for culture as described hereinabove. Cultures can be used up to the fourth passage, and viable cultures can be cryogenically stored. Cultures of normal, diabetic and DR REC are established from autopsy human eyes and routinely checked for purity using von Willebrand factor immunostaining as described hereinabove. Cells are cultured in 50% F-12, 50% low-glucose DMEM with antibiotics/antimycotics (GIBCO/BRL), insulin-transferrin-selenite, ECGS (Sigma Chemical Co.), and 20% FCS. Statistical analysis of results is done with GraphPad Prism software (GraphPad Software).
In experiments, normal, diabetic, and DR REC were grown for seven days with or without 10 ng/ml VEGF, or 10 ng/mL IGF-I, or 10 ng/mL each VEGF and IGF-I, in medium with 0.5% serum. Long-term rather than short-term treatment was chosen because diabetes develops over a considerable time period. RNA isolated from REC was reverse-transcribed using Smart™ cDNA synthesis method (Clontech), to produce full-length cDNA. Two normal cases or two DR cases were pooled together. This cDNA was PCR-amplified with a short number of cycles and used as a probe for Clontech Atlas Human 1.2 1,200-gene arrays, according to the manufacturer's instructions. This technique had previously been refined and verified by Northern analysis and fully correlated gene array data with protein expression. (Spirin K S et al., Analysis of gene expression in human bullous keratopathy corneas containing limiting amounts of RNA, Invest. Ophthalmol. Vis. Sci. 40:3108-3115 [1999]). Samples were normalized to several housekeeping genes and the analysis was done with available AtlasImage 2.0 software (Clontech). Signal ratio>2 between samples was considered significant as per manufacturer's recommendation.

[9] = emodin-treated vs vehicle control
[10] = growth factors at 10 ng/ml each

In the case of Cc1cc(O)c2c(c1)C(=O)c1cc(O)cc(O)c1C2=O [emodin, 3-methyl-1,6,8-trihydroxyanthraquinone], the “inhibition of REC proliferation” value [1] is reported as “potently inhibited”, the “inhibition of REC secondary sprouting” value [2] is reported as “potently inhibited” and the “inhibition of REC migration” value [3] is reported as “potently inhibited”. The “effect on growth factor-mediated cell migration” value [3] was “significant inhibitory effect”, the “neovascular tufts in fluorescein angiograms” value [4, 9] was “much less pronounced” and the “retinal vascularization in fluorescein angiograms” value [4, 9] was “significantly less vascularization”. For the same compound, the “retinal neovascularization diminished by” value [4] was 70-75%, the “inhibition of REC tube formation” value [5] was “potently inhibited” and the solubility in water [6] was “not easily dissolved in water”. The solubility in vehicle ([6]; phosphate-buffered saline with 20% PEG 400 + 2% Tween-80, pH 7.2) was “did not ensure emodin solubility”.

In the case of OC[C@H]1O[C@@H](n2cnc3cc(Cl)c(Cl)cc32)[C@H](O)[C@@H]1O [DRB, 5,6-dichloro-1-β-D-ribofuranosylbenzimidazole], the “inhibition of REC proliferation” value [1] is reported as “potently inhibited”, the “effect on number of live cells (proliferation)” value ([1]; bovine REC, 10% serum, various concentrations, day 6, MTS) is reported as “significantly lowers cell number” and the “inhibition of REC secondary sprouting” value [2] is reported as “potently inhibited”. The “concentration from which cell number in secondary sprouting is significantly decreased” value ([2]; bovine REC on Matrigel, 0.5% serum, day 9, MTS) was no less than 25 µM, the “effect on number of live cells (survival)” value ([7]; bovine REC, 0.5% serum, various concentrations, day 6, MTS) was “significantly lowers cell number” and the “inhibition of REC migration” value [3] was “potently inhibited”. For the same compound, the “effect on growth factor-mediated cell migration” value [3] was “significant inhibitory effect”, the “retinal neovascularization diminished by” value [4] was “about 60%” and the “inhibition of REC tube formation” value [5] was “potently inhibited”. For the same compound, the solubility in water [6] was “not easily dissolved in water”.

For “IGF-I: insulin-like growth factor (IGF)-I”, the “expression of pro-apoptotic genes” value [8] was “decrease”.

With CC1CNCCN1S(=O)(=O)c1cccc2cnccc12 (stereo not drawn) [H-7] the “inhibition of REC proliferation” value [1] was “inhibited”, the “inhibition of REC secondary sprouting” value [2] was “inhibited” and the “inhibition of REC migration” value [3] was “inhibited”. The “effect on REC tubes on Matrigel” value ([5]; preliminary results, not shown) was “stabilized”.

For FGF-2: fibroblast growth factor (FGF)-2, the “growth factor effect on secondary sprouting (in words)” value ([2]; 10 ng/mL growth factor) was “greatly enhanced” and the “stimulation of secondary sprouting (fold)” value ([2]; growth factors, on average) was “four-fold”.

For O=c1c(O)c(-c2ccc(O)c(O)c2)oc2cc(O)cc(O)c12 [quercetin], the “inhibition of REC proliferation” value [1] was “potently inhibited”, the “inhibition of REC secondary sprouting” value [2] was “potently inhibited” and the “inhibition of REC migration” value [3] was “potently inhibited”. For the same compound, the “effect on retinal neovascularization” value ([4]; intramuscular injections, data not shown) was “substantial effect” and the “inhibition of REC tube formation” value [5] was “potently inhibited”.

With VEGF the “growth factor effect on REC survival” value [7, 10] was “little effect”, the “growth factor effect on REC migration” value [3, 10] was “significantly enhanced” and the “expression of pro-apoptotic genes” value [8] was “did not display an increase”. For the same compound, the “expression of proliferation-related genes” value [8] was “upregulated”.
